Assay results from US8921373B2, “Compounds having TRPV1 antagonistic activity and uses thereof” (Shionogi & Co., Ltd., priority 2010, dated 2014).

Legend:
human recombinant TRPV1 [1] = molecular target: T1, human recombinant TRPV1 (Homo sapiens (Human), UniProt Q8NER1); assay: TRPV1 Capsaicin-Based Assay (Protocol 2, TRPV1/CHO cells, Fluo-4, FLIPR); assay type: cell-based; conditions: TRPV1/CHO cells, capsaicin 100 nM final
Experimental: (§1) For Protocol 2, a Chinese Hamster Ovary cell line (CHO) that has been engineered to constitutively express human recombinant TRPV1 was used (TRPV1/CHO cells). The TRPV1/CHO cell line was generated as described below.
One day prior to assay, TRPV1/CHO cells were seeded in 96-well clear-bottom black plates (20,000 cells/well) in growth media. On the day of the experiment, the cells were washed with 0.2 mL 1× Hank's Balanced Salt Solution (Life Technologies) containing 1.6 mM CaCl2 and 20 mM HEPES, pH 7.4 (“wash buffer”). Subsequently, the cells were loaded by incubation in 0.1 mL of wash buffer containing Fluo-4 at 3 μM final concentration. After 1 hour, the cells were washed twice with 0.2 mL wash buffer and resuspended in 0.1 mL wash buffer. The plates were then transferred to a Fluorescence Imaging Plate Reader (Molecular Devices). Fluorescence intensity was monitored for 15 seconds to establish a baseline. Subsequently, test compounds diluted in assay buffer (1× Hank's Balanced Salt Solution containing 1 mM CaCl2 and 20 mM HEPES, pH 7.4) containing 1% DMSO were added to the cell plate and fluorescence was monitored for 2 minutes. […] Human TRPV1 was then activated by the addition of 50 μL capsaicin (100 nM final concentration) and plates incubated for an additional 3 min. Data were collected over the entire time course and analyzed using Excel and the curve-fitting formula GraphPad Prism.

human recombinant TRPV1 [2] = molecular target: T1, human recombinant TRPV1; assay: TRPV1 pH-Based Assay (Protocol 2, Ca2+ response in TRPV1/CHO cells, Fura-2); assay type: cell-based; conditions: TRPV1/CHO cells, pH 5.0-5.1; read-out: IC50 value by the pH-Based Assay
Experimental: as §1
TRPV1/CHO cells were seeded in the 96-well clear-bottom black-wall plate (Nunc) at densities of 1-2×10^4 cells/well and grown in 100 μL of culture medium (alpha-MEM supplemented with 10% FBS, 20 mM HEPES, 1 mg/mL geneticin and 1% antibiotic-antimycotic mixed stock solution) for 1-2 days before the experiment.
(2) The 96-well plate was incubated at 37° C. for 45 min.
(3) The loading buffer was removed from each well. […] The wells were then refilled with 80 μL of measuring buffer.
(4) After an incubation at 4° C. for 15 min, the 96-well plate was transferred to FDSS-3000 (Hamamatsu Photonics, Japan).
(5) The Fura-2 fluorescent intensity was monitored at a wavelength of 340 nm and at 380 nm, respectively, at a rate of 0.5 Hz for a total of 240 seconds. After 16 time points (32 sec) of baseline detection, 20 μL of agonist solution was added to each well. The final volume was 100 μL/well.
(6) Fluorescence intensity ratio refers to the fluorescence intensity at 340 nm over the fluorescence intensity at 380 nm at a particular time point. The baseline was set as the average of the fluorescent intensity ratios for the first 16 time points before the addition of agonist solution. The maximum response was the highest fluorescent intensity ratio during the 60 time points following addition of agonist solution.
(7) Maximal signal ratios from each well were calculated as output data using the FDSS-3000 analysis program. Data were analyzed using Excel (Microsoft) and XLfit (idbs) software.
Two different agonist solutions with different H2SO4 concentrations were used for the pH assay (FIG. 3A). For one half of a 96-well plate one agonist solution was used, for the other half the other agonist solution. The agonist solutions were obtained by diluting sulfuric acid (H2SO4, 1M) with measuring buffer. The concentrations for the two agonist solutions were determined as described above in Section 2 of Protocol 2.
The sulfuric acid concentrations between the two agonist solutions differed by 0.5 mM. […] After 1:4 dilution of the agonist solutions, the final sulfuric acid concentration was 3.2 mM and 3.3 mM, respectively. The resulting pH value for the pH assay was 5.0 to 5.1.
Test compounds were dissolved in DMSO to yield 1 mM stock solutions. […] The thereby-obtained solutions were further diluted in measuring buffer (1:100) as 10× stock serial dilutions with a DMSO concentration of 1%. 10 μL of a 10× stock was added into each well at step 3.3.(4) of Protocol 2.
Steps (1) and (2) of this Assay were the same as steps 2.2.(1) and 2.2.(2) of Protocol 2, respectively.
(3) The cells were washed twice with 150 μL of measuring buffer (mentioned in 2.2.(3) of Protocol 2, no probenecid). The wells were subsequently refilled with 70 μL of measuring buffer.
(4) Either 10 μl of measuring buffer or 10 μL of 10× stock serial dilution of test compound (described in 3.2. above) were applied to each well. Usually, only one test compound was tested per 96-well plate. The number of replicates per 96-well plate for a particular antagonist at a particular concentration was 7×2 since two different sulfuric acid concentrations were used per 96-well plate (N=7×2) (FIG. 3).
Step (5) was the same as 2.2.(4) above.
(6) Fura-2 fluorescent intensity was monitored as described in 2.2.(5) above. After 16 time points of baseline detection, 20 μL of agonist solution (measuring buffer titrated with H2SO4 to yield pH 5.0-5.1 when mixed 1:4 with the measuring buffer containing test compound) was added to each well (final volume 100 μL/well).
Steps (7) and (8) were as described in 2.2.(6) and 2.2.(7) above, respectively.
(1) The pH values of the buffer in the wells of A1→H1 and A7→H7 (longitudinally; FIG. 3) were measured one by one using a portable pH meter.

[3] = read-out: IC50 value by the Capsaicin-Based Assay

T1 sequence (Q8NER1 whole entry): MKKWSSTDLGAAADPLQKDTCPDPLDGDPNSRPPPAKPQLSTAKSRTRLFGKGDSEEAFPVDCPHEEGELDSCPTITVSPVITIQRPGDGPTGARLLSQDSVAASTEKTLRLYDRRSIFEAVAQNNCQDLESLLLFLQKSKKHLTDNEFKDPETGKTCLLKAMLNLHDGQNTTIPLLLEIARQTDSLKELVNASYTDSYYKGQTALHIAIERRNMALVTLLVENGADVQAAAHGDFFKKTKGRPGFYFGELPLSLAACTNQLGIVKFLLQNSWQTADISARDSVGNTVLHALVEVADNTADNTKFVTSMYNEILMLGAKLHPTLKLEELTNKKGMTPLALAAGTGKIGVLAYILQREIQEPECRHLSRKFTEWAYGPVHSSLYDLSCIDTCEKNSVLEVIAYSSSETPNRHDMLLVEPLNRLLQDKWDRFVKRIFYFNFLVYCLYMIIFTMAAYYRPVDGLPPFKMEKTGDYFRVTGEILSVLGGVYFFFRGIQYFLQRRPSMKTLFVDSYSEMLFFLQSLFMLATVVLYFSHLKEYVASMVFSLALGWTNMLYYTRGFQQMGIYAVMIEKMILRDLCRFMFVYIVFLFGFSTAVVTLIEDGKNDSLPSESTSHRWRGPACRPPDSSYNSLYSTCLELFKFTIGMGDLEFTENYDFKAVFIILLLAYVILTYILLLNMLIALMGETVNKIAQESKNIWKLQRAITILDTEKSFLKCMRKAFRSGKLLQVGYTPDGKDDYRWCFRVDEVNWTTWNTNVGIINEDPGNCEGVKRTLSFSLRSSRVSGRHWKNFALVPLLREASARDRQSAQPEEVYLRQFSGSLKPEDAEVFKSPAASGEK

SMILES: CC1(C)CN(c2ncc(C[C@@H](O)CO)cc2F)CCN1C(=O)Nc1nc2ccc(F)cc2s1 [AFZ]
- IC50 (human recombinant TRPV1 [1]; [3]): ≤ 50 nM
- IC50 (human recombinant TRPV1 [2]): ≤ 50 nM

SMILES: C[C@H]1CN(c2ncc(C[C@@H](O)CO)cc2Cl)CCN1C(=O)Nc1nc2ccc(Cl)cc2s1 [AEE]
- IC50 (human recombinant TRPV1 [1]; [3]): ≤ 50 nM
- IC50 (human recombinant TRPV1 [2]): ≤ 50 nM

SMILES: Cc1cc(NC(=O)N2CCC(F)(c3ncc(C[C@H](O)CO)cc3F)CC2)ccc1OC(F)(F)F [drawing 496]
- IC50 (human recombinant TRPV1 [1]; compounds of the invention, read-out: TRPV1 IC50 Potency (Capsaicin-Based Assay), Compound IC50): 46 nM

SMILES: C[C@@H]1CN(c2ncc(C[C@@H](O)CO)cc2F)CCN1C(=O)Nc1nc2ccc(F)cc2s1 [ADH, (R)-4-(5-[(R)-2,3-dihydroxypropyl)-3-fluoropyridin-2-yl)-N-(6-fluorobenzo[d]thiazol-2-yl]-2-methylpiperazine-1-carboxamide]
- IC50 (human recombinant TRPV1 [1]; [3]): ≤ 50 nM
- IC50 (human recombinant TRPV1 [2]): ≤ 50 nM

SMILES: C[C@H]1CN(c2ncc(C[C@@H](O)CO)cc2F)CCN1C(=O)Nc1nc2ccc(Cl)cc2s1 [AEK]
- IC50 (human recombinant TRPV1 [1]; [3]): ≤ 50 nM
- IC50 (human recombinant TRPV1 [2]): ≤ 50 nM

SMILES: C[C@H]1CN(c2ncc(C[C@H](O)CO)cc2Cl)CCN1C(=O)Nc1nc2ccc(F)cc2s1 [AEB]
- IC50 (human recombinant TRPV1 [1]; [3]): ≤ 50 nM
- IC50 (human recombinant TRPV1 [2]): ≤ 50 nM

SMILES: C[C@H]1CN(C(=O)Nc2nc3ccc(Cl)cc3s2)CCN1c1ncc(C[C@H](O)CO)cc1F [AGK]
- IC50 (human recombinant TRPV1 [1]; [3]): ≤ 50 nM
- IC50 (human recombinant TRPV1 [2]): ≤ 50 nM

SMILES: C[C@H]1CN(c2ncc(C[C@@H](O)CO)cc2Cl)CCN1C(=O)Nc1nc2ccc(F)cc2s1 [ADY]
- IC50 (human recombinant TRPV1 [1]; [3]): ≤ 50 nM
- IC50 (human recombinant TRPV1 [2]): ≤ 50 nM

SMILES: C[C@H]1CN(C(=O)Nc2nc3cc(F)c(F)cc3s2)CCN1c1ncc(C[C@@H](O)CO)cc1F [AFS]
- IC50 (human recombinant TRPV1 [1]; [3]): ≤ 50 nM
- IC50 (human recombinant TRPV1 [2]): ≤ 50 nM

SMILES: C[C@H]1CN(c2ncc(C[C@@H](O)CO)cc2F)CCN1C(=O)Nc1nc2cc(F)c(F)cc2s1 [AEY]
- IC50 (human recombinant TRPV1 [1]; [3]): ≤ 50 nM
- IC50 (human recombinant TRPV1 [2]): ≤ 50 nM

SMILES: C[C@H]1CN(C(=O)Nc2nc3ccc(Cl)cc3s2)CCN1c1ncc(C[C@@H](O)CO)cc1F [AFR]
- IC50 (human recombinant TRPV1 [1]; [3]): ≤ 50 nM
- IC50 (human recombinant TRPV1 [2]): ≤ 50 nM

SMILES: Cc1cc(NC(=O)N2CC=C(c3ncc(C[C@@H](O)CO)cc3Cl)CC2)ccc1OC(F)(F)F [AAS, (R)-4-(3-Chloro-5-(2,3-dihydroxypropyl)pyridin-2-yl)-N-(3-methyl-4-(trifluoromethoxy)phenyl)-5,6-dihydropyridine-1(2H)-carboxamide]
- IC50 (human recombinant TRPV1 [1]; [3]): ≤ 50 nM
- IC50 (human recombinant TRPV1 [2]): ≤ 50 nM

SMILES: Cc1cc(NC(=O)N2CCC(F)(c3ncc(C[C@@H](O)CO)cc3F)CC2)ccc1C(F)(F)F [ACO, (R)-4-(5-(2,3-dihydroxypropyl)-3-fluoropyridin-2-yl)-4-fluoro-N-(3-methyl-4-(trifluoromethyl)phenyl)piperidine-1-carboxamide]
- IC50 (human recombinant TRPV1 [1]; [3]): ≤ 50 nM
- IC50 (human recombinant TRPV1 [2]): ≤ 50 nM

SMILES: Cc1cc(NC(=O)N2CCC(F)(c3ncc(C[C@H](O)CO)cc3Cl)CC2)ccc1C(F)(F)F [ACS, (S)-4-(3-Chloro-5-(2,3-dihydroxypropyl)pyridin-2-yl)-4-fluoro-N-(3-methyl-4-(trifluoromethyl)phenyl)piperidine-1-carboxamide]
- IC50 (human recombinant TRPV1 [1]; [3]): ≤ 50 nM
- IC50 (human recombinant TRPV1 [2]): ≤ 50 nM

SMILES: Cc1cc2nc(NC(=O)N3CCN(c4ncc(C[C@@H](O)CO)cc4Cl)CC3)sc2cc1C [AEH]
- IC50 (human recombinant TRPV1 [1]; [3]): ≤ 50 nM
- IC50 (human recombinant TRPV1 [2]): ≤ 50 nM

SMILES: Cc1cc(NC(=O)N2CCC(F)(c3ncccc3F)CC2)ccc1OC(F)(F)F [reference compound]
- IC50 (human recombinant TRPV1 [1]; comparative compounds, read-out: TRPV1 IC50 Potency (Capsaicin-Based Assay), Comparative compound IC50): 100 nM
